How the values were obtained:
JAK1 = molecular target: T1, JAK1 (Homo sapiens, UniProt P23458); assay: Biochemical JAK1 kinase assay (LanthaScreen); conditions: for Ki: read-out: JAK 1 (pKi) (converted)
T1 construct: GST; purchased Life Technologies
Procedure, shortened: (§1)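 Values are pKi, calculated by Cheng-Prusoff from IC50 obtained by robust 4-parameter fitting of percent inhibition. The kinase reaction used GFP-STAT1 peptide in HEPES pH 7.5 buffer with MgCl2, EGTA and Brij-35, ATP-initiated after compound pre-incubation, 1 h at ambient temperature.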

JAK2 = molecular target: T2, JAK2 (Homo sapiens, UniProt O60674); assay: Biochemical JAK2 kinase assay (LanthaScreen); conditions: for Ki: read-out: JAK 2 (pKi) (converted)
T2 construct: GST; purchased Life Technologies
Method: (§2) A panel of four LanthaScreen JAK biochemical assays (JAK1, 2, 3 and Tyk2) were carried in a common kinase reaction buffer (50 mM HEPES, pH 7.5, 0.01% Brij-35, 10 mM MgCl2, and 1 mM EGTA). Recombinant GST-tagged JAK enzymes and a GFP-tagged STAT1 peptide substrate were obtained from Life Technologies.
(§3) Serially or discretely diluted compounds were pre-incubated with each of the four JAK enzymes and the substrate in white 384-well microplates (Corning) at ambient temperature for 1 h. ATP was subsequently added to initiate the kinase reactions in 10 μL total volume, with 1% DMSO. […] Kinase reactions were allowed to proceed for 1 hour at ambient temperature before a 10 μL preparation of EDTA (10 mM final concentration) and Tb-anti-pSTAT1 (pTyr701) antibody (Life Technologies, 2 nM final concentration) in TR-FRET dilution buffer (Life Technologies) was added. The plates were allowed to incubate at ambient temperature for 1 h before being read on the EnVision reader (Perkin Elmer).
(§4) For dose-response analysis, percent inhibition data were plotted vs. compound concentrations, and IC50 values were determined from a 4-parameter robust fit model with the Prism software (GraphPad Software). Results were expressed as pIC50 (negative logarithm of IC50) and subsequently converted to pKi (negative logarithm of dissociation constant, Ki) using the Cheng-Prusoff equation.

Tyk2 = molecular target: T3, Tyk2 (Homo sapiens, UniProt P29597); assay: Biochemical Tyk2 kinase assay (LanthaScreen); conditions: for Ki: read-out: Tyk 2 (pKi) (converted)
T3 construct: GST; purchased Life Technologies
Method: as §2
as §3, with “Elmer). Emission ratio signals (520 nm/495 nm) were recorded and utilized to calculate the percent inhibition values based on DMSO and background controls.” for “Elmer).”
as §4

[1] = test system: IL-2 stimulated pSTAT5 in Tall-1 T cells; assay: Cellular JAK3 potency assay: inhibition of IL-2 stimulated pSTAT5 in Tall-1 T cells; format: cell-based, human; conditions: for IC50: Homo sapiens, TALL-1, IL-2 stimulated pSTAT5 in Tall-1 T cells, read-out: Tall-1 (pIC50) (converted); for Tall-1 (pIC50): IL-2 stimulated pSTAT5 in Tall-1 T cells
Procedure, shortened: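 Tall-1 human T cells were preincubated with compound for 1 h at 37° C, then stimulated with IL-2 (300 ng/ml final) for 30 min. STAT5 phosphorylation in lysates was read by AlphaLisa bead emission, and IC50 from inhibition curves is given as pIC50 (mean±SD).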

JAK3 = molecular target: T4, JAK3 (Homo sapiens, UniProt P52333); assay: Biochemical JAK3 kinase assay (LanthaScreen); set-up: GST; purchased Life Technologies; conditions: for Ki: read-out: JAK 3 (pKi) (converted); for JAK3 (pKi)-JAK1 (pKi): selectivity: difference of pKi JAK3 and pKi JAK1
T4 sequence (P52333 1-1124): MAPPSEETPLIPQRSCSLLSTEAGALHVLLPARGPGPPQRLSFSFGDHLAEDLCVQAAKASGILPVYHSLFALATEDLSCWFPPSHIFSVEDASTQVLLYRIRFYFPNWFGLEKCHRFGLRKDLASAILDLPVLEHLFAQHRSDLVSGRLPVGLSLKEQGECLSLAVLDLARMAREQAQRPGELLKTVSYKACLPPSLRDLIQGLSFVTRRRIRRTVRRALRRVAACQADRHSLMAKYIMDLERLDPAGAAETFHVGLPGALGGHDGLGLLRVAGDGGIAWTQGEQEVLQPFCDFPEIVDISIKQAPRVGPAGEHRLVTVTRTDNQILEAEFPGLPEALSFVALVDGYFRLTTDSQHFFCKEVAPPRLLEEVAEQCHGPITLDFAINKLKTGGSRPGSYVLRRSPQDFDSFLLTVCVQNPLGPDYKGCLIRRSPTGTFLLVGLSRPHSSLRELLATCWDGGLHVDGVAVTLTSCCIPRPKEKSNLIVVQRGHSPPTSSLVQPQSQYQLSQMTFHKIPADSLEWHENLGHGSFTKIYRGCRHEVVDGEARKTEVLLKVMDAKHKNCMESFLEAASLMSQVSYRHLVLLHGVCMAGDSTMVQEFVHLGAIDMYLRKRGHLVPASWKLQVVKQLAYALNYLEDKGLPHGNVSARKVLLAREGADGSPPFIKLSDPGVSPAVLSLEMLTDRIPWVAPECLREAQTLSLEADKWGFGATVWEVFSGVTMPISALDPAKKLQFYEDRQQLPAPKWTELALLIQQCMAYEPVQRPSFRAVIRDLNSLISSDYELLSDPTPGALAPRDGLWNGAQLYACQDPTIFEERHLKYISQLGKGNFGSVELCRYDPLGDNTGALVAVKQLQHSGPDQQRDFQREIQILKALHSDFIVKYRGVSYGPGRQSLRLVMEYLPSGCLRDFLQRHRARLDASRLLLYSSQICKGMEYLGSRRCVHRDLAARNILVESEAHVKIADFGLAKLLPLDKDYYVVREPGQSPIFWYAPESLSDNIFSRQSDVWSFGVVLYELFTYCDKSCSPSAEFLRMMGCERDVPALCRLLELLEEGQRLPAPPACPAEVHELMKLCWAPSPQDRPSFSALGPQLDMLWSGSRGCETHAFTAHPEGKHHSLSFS
Procedure, shortened: as §1

T3 sequence (P29597 whole entry): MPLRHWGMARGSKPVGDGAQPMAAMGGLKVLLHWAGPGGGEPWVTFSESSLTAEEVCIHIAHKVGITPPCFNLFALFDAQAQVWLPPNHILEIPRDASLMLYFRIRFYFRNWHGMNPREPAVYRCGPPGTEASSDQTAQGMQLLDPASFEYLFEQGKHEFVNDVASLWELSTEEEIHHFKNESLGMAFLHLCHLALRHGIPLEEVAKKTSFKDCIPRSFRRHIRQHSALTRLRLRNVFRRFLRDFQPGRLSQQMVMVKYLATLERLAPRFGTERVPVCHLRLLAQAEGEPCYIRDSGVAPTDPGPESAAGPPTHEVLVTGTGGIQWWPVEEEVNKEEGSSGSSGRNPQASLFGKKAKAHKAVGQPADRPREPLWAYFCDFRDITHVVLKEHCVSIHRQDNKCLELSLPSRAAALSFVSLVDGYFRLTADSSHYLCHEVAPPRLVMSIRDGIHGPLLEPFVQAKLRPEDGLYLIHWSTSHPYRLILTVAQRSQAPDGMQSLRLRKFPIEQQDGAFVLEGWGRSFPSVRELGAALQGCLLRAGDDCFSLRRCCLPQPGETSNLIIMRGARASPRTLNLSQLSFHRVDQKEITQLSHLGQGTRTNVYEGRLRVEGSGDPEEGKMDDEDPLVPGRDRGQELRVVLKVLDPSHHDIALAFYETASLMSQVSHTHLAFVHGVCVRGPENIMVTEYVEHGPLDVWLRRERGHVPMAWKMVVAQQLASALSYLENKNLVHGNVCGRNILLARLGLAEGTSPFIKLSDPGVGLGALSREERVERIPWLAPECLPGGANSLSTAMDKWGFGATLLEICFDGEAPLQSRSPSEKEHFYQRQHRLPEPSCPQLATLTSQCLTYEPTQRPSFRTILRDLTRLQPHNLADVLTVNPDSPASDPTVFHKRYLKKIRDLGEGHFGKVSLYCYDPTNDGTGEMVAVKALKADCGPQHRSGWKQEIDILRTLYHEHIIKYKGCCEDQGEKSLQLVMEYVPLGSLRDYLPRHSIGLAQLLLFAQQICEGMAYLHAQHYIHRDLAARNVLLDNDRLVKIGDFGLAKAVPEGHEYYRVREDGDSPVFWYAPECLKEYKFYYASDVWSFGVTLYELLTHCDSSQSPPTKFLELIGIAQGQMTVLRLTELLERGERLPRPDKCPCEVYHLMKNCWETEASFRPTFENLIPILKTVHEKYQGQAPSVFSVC
T2 sequence (O60674 whole entry): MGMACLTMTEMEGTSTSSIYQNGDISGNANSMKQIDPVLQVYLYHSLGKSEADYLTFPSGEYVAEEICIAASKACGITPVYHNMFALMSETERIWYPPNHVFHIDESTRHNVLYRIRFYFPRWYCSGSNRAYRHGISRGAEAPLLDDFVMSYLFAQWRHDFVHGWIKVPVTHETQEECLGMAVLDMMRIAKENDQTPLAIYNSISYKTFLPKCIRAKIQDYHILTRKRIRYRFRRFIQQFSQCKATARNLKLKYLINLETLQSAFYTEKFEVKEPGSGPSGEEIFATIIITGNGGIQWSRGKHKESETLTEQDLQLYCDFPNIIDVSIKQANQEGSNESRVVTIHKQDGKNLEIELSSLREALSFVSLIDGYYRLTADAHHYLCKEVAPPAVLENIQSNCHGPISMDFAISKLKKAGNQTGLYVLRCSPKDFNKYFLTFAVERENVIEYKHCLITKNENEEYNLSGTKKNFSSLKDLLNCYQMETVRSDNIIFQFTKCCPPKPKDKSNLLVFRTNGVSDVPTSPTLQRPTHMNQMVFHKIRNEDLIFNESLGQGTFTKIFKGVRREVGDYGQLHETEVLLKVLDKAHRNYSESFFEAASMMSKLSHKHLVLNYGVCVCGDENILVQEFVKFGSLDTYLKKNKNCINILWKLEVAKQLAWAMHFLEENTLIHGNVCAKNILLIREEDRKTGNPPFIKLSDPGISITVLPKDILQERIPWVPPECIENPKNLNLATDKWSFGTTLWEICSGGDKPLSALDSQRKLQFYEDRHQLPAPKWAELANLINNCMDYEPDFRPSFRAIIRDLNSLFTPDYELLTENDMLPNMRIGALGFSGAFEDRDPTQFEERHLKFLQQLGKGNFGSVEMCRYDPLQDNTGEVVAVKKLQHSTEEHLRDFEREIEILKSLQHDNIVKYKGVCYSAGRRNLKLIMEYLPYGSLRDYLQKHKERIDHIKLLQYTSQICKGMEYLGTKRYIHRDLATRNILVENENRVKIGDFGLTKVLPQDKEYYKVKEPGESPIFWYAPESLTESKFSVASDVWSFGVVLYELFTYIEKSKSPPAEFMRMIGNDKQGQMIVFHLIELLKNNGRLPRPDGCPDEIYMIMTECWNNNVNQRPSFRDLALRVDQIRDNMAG
T1 sequence (P23458 whole entry): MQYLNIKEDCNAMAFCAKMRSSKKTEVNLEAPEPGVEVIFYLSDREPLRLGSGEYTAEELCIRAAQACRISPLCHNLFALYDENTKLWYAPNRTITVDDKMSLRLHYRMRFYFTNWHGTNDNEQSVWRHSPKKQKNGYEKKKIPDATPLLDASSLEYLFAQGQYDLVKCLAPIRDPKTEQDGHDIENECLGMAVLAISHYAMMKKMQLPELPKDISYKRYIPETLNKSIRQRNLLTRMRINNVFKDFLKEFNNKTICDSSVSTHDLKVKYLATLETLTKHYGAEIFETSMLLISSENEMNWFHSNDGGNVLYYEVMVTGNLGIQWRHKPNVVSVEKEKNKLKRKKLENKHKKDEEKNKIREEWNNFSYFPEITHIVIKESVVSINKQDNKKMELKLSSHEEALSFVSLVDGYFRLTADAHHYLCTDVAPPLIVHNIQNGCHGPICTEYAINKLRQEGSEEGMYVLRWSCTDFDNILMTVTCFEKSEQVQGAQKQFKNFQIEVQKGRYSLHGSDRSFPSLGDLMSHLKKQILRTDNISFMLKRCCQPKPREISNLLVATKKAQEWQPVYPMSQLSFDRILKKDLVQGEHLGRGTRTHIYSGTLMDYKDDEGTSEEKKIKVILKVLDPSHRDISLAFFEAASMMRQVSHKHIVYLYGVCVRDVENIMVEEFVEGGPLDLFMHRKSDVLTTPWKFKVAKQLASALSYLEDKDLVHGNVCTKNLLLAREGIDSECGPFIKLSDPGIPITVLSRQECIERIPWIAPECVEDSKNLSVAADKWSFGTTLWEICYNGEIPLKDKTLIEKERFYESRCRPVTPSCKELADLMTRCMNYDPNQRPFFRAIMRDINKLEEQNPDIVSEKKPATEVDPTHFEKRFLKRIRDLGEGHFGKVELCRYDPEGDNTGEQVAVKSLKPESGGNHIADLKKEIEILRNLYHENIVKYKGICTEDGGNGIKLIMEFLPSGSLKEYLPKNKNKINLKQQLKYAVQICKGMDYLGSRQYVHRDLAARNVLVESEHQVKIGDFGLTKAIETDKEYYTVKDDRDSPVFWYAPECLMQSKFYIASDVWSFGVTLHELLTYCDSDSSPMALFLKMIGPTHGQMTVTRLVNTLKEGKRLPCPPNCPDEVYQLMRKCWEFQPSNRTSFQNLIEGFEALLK

Compound | Ki (JAK1) [nM] | Ki (JAK2) [nM] | Ki (Tyk2) [nM] | IC50 [1] [nM] | Ki (JAK3) [nM] | JAK3 (pKi)-JAK1 (pKi) (JAK3) | JAK 1 (pKi) (JAK1) | JAK 2 (pKi) (JAK2) | Tyk 2 (pKi) (Tyk2) | Tall-1 (pIC50) [1] | JAK 3 (pKi) (JAK3)
C=CC(=O)N1CC[C@H](Oc2nc(-c3ccc(O)c(F)c3)nc3[nH]nc(C)c23)C1 [Compound 1-38] | > 100 | > 100 | > 100 | 31.6 to 200 | < 0.1 | A (a value of 3 or above) | – | – | – | – | –
C=CC(=O)N1CC[C@H](Oc2cc(-c3ccc(O)c(F)c3)cc3[nH]nc(SC)c23)C1 [Compound 1-40] | > 100 | > 100 | > 100 | 31.6 to 200 | 0.1 to 1 | B (a value of 2.3 to 3) | – | – | – | – | –
C=CC(=O)N1CC[C@H](Oc2cc(-c3ccc(O)c(Cl)c3)cc3[nH]nc(SC)c23)C1 [Compound 1-41] | > 100 | > 100 | > 100 | 31.6 to 200 | 0.1 to 1 | A (a value of 3 or above) | – | – | – | – | –
C=CC(=O)N1CC[C@H](Oc2cc(-c3ccc(O)cc3)cc3[nH]nc(OC)c23)C1 [Compound 1-44] | > 100 | > 100 | > 100 | < 31.6 | < 0.1 | A (a value of 3 or above) | – | – | – | – | –
C=CC(=O)N1CC[C@H](Oc2cc(-c3ccc(O)cc3)cc3[nH]nc(C#N)c23)C1 [Compound 1-45] | > 100 | > 100 | > 100 | < 31.6 | < 0.1 | A (a value of 3 or above) | – | – | – | – | –
C=CC(=O)N1CC[C@H](Oc2cc(-c3ccc(O)cc3)cc3[nH]nc(Cl)c23)C1 [Compound 1-47] | – | – | – | – | – | B (a value of 2.3 to 3) | E (a pKi value of 7 or below (Ki of 100 nM or above)) | E (a pKi value of 7 or below (Ki of 100 nM or above)) | E (a pKi value of 7 or below (Ki of 100 nM or above)) | B (a pIC50 value between 6.7 (included) and 7.5 (IC50 between 200 nM and 32 nM)) | B (a pKi value between 9 and 10 (Ki between 1 nM and 0.1 nM))
CN(C)C/C=C/C(=O)N1CC[C@H](COc2cc(-c3ccc(O)c(Cl)c3)cc3[nH]ncc23)C1 [Compound 2-2] | – | – | – | – | – | A (a value of 3 or above) | E (a pKi value of 7 or below (Ki of 100 nM or above)) | D (a pKi value between 7 and 8 (Ki between 100 nM and 10 nM)) | E (a pKi value of 7 or below (Ki of 100 nM or above)) | B (a pIC50 value between 6.7 (included) and 7.5 (IC50 between 200 nM and 32 nM)) | B (a pKi value between 9 and 10 (Ki between 1 nM and 0.1 nM))
C=CC(=O)N1CC[C@H](COc2cc(-c3ccc(O)c(Cl)c3)cc3[nH]ncc23)C1 [Compound 2-3] | – | – | – | – | – | A (a value of 3 or above) | E (a pKi value of 7 or below (Ki of 100 nM or above)) | D (a pKi value between 7 and 8 (Ki between 100 nM and 10 nM)) | E (a pKi value of 7 or below (Ki of 100 nM or above)) | B (a pIC50 value between 6.7 (included) and 7.5 (IC50 between 200 nM and 32 nM)) | B (a pKi value between 9 and 10 (Ki between 1 nM and 0.1 nM))
C=CC(=O)N1CC[C@H](COc2cc(-c3ccc(O)c(F)c3)cc3[nH]ncc23)C1 [Compound 2-5] | – | – | – | – | – | A (a value of 3 or above) | E (a pKi value of 7 or below (Ki of 100 nM or above)) | D (a pKi value between 7 and 8 (Ki between 100 nM and 10 nM)) | E (a pKi value of 7 or below (Ki of 100 nM or above)) | B (a pIC50 value between 6.7 (included) and 7.5 (IC50 between 200 nM and 32 nM)) | B (a pKi value between 9 and 10 (Ki between 1 nM and 0.1 nM))
C=CC(=O)N1CC[C@H](COc2nc(-c3ccc(O)cc3)cc3[nH]ncc23)C1 [Compound 2-8] | – | – | – | – | – | A (a value of 3 or above) | E (a pKi value of 7 or below (Ki of 100 nM or above)) | D (a pKi value between 7 and 8 (Ki between 100 nM and 10 nM)) | E (a pKi value of 7 or below (Ki of 100 nM or above)) | B (a pIC50 value between 6.7 (included) and 7.5 (IC50 between 200 nM and 32 nM)) | B (a pKi value between 9 and 10 (Ki between 1 nM and 0.1 nM))
C=CC(=O)N1CC[C@H](COc2nc(-c3ccc(O)c(F)c3)cc3[nH]ncc23)C1 [Compound 2-10] | – | – | – | – | – | A (a value of 3 or above) | E (a pKi value of 7 or below (Ki of 100 nM or above)) | D (a pKi value between 7 and 8 (Ki between 100 nM and 10 nM)) | E (a pKi value of 7 or below (Ki of 100 nM or above)) | A (a pIC50 value≥7.5 (IC50≤32 nM)) | B (a pKi value between 9 and 10 (Ki between 1 nM and 0.1 nM))
C=CC(=O)N1CC[C@H](COc2nc(-c3ccc(O)c(Cl)c3)nc3[nH]ncc23)C1 [Compound 2-11] | – | – | – | – | – | A (a value of 3 or above) | E (a pKi value of 7 or below (Ki of 100 nM or above)) | E (a pKi value of 7 or below (Ki of 100 nM or above)) | E (a pKi value of 7 or below (Ki of 100 nM or above)) | B (a pIC50 value between 6.7 (included) and 7.5 (IC50 between 200 nM and 32 nM)) | B (a pKi value between 9 and 10 (Ki between 1 nM and 0.1 nM))
C=CC(=O)N1CC[C@H](COc2nc(-c3ccc(O)c(F)c3)nc3[nH]ncc23)C1 [Compound 2-15] | – | – | – | – | – | A (a value of 3 or above) | E (a pKi value of 7 or below (Ki of 100 nM or above)) | E (a pKi value of 7 or below (Ki of 100 nM or above)) | E (a pKi value of 7 or below (Ki of 100 nM or above)) | B (a pIC50 value between 6.7 (included) and 7.5 (IC50 between 200 nM and 32 nM)) | A (a pKi value≥10 (Ki≤0.1 nM))

— patent publication US10392368B2, “Pyrazolo and triazolo bicyclic compounds as JAK kinase inhibitors” (THERAVANCE BIOPHARMA R&D IP, LLC, priority 2017, dated 2019)
